{
  "source": "patent US9302991B2",
  "about": "“Arylamide derivatives as TTX-S blockers” (RaQualia Pharma Inc., priority 2010, dated 2016)",
  "data": [
    {"target": "T1, human Nav1.3 channels (Homo sapiens, UniProt Q9NY46)", "T1 construct": "expressed in transfected cells; host or cells: HEK293", "T1 sequence (Q9NY46 whole entry)": "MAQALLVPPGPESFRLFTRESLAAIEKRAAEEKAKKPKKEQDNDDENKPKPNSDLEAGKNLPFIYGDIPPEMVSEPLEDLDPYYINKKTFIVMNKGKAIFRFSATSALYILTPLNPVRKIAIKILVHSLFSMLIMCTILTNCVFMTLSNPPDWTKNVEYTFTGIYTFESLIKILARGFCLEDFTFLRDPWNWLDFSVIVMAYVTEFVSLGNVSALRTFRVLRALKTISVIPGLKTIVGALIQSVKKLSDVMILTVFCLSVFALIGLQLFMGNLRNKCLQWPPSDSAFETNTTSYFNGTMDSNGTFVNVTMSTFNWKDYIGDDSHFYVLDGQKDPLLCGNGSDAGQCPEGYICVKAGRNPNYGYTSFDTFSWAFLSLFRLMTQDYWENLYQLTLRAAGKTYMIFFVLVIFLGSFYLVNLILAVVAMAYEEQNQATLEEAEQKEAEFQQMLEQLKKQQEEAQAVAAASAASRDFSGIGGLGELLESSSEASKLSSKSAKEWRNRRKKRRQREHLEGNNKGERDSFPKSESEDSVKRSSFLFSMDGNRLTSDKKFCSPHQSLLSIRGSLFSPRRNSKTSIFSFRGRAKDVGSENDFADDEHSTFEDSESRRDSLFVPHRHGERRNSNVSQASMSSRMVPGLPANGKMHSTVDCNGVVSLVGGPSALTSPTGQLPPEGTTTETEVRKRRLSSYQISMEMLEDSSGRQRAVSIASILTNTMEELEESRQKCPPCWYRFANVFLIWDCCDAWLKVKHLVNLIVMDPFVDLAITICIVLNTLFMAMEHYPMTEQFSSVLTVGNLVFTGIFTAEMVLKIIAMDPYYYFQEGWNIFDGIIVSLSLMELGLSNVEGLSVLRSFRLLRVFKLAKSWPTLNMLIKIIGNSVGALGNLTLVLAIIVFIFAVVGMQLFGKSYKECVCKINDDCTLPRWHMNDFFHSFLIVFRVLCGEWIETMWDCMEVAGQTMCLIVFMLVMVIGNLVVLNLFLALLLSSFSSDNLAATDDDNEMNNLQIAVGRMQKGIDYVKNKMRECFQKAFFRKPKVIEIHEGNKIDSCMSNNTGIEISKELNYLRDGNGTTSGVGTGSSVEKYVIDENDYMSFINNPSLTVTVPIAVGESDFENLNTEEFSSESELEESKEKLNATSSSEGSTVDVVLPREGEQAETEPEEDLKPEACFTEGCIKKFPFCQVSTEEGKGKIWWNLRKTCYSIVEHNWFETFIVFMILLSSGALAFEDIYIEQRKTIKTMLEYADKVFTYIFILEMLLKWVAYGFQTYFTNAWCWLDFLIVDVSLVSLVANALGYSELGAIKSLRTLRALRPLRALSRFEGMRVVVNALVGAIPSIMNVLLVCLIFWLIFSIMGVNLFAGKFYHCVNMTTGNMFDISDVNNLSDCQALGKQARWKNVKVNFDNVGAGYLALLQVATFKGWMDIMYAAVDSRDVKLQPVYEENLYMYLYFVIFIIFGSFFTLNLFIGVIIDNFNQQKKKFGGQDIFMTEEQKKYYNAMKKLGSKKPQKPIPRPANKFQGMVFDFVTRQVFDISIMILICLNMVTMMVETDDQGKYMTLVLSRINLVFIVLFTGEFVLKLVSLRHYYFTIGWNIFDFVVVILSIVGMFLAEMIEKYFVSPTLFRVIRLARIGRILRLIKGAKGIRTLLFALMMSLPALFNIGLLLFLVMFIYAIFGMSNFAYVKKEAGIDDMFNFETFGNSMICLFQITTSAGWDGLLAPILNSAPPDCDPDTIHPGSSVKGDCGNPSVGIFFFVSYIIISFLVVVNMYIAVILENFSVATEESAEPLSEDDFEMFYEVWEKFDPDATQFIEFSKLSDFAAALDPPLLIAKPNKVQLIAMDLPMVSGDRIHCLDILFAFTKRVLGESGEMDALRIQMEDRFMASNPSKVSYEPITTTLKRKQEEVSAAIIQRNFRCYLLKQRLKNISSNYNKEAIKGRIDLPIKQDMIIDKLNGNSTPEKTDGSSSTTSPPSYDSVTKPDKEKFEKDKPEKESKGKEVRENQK", "test": "FRET assay, human Nav1.3 (EFS on FDSS)", "format": "cell-based", "conditions": "HEK293 cells expressing human Nav1.3, read-out: IC50 against Nav1.3", "procedure": "The inhibitory activities of compounds against voltage gated sodium channels are determined by methodology well known in the art.\nThe ability of the aryl substituted carboxamide derivatives of the formula (I) to inhibit the NaV1.3, Nav1.7 and Nav1.5 channels is measured by Fluorescence Resonance Energy Transfer (FRET) assay and electrophysiology assay described below.\nThis screen is used to determine the effects of compounds on human Nav1.3, human Nav1.7, and human Nav1.5 channels, utilising electrical field stimulation (EFS) system in 96-well plate format on FDSS (Hamamatsu Photonics) platform. The change of membrane potential is monitored with FRET dye pair, oxonol (DiSBAC2(3)) and coumarin (CC2-DMPE).\nEach HEK293 cells expressing human Nav1.3 channels and HEK293 cells expressing human Nav1.5 channels are grown in T225 flasks, in a 5% CO2 humidified incubator to about 80% confluence. Media composition consists of Dulbecco's Modified Eagle Medium (high glucose), 10% FCS, 100 units/mL Penicillin, 100 microgram/mL Streptomycin and 500 microgram/mL Geneticine.\nProtocol: • Seed each cell lines (1×10^5 cells/well) into poly-D-lysine coated 96-well plates prior to experimentation. • Incubate at 37° C. in 5% CO2 for 24 hours. • Wash each well with assay buffer (140 mM NaCl, 4.5 mM KCl, 10 mM D-Glucose, 2 mM CaCl2, 1 mM MgCl2, 10 mM HEPES, pH 7.4 adjusted with NaOH) twice. • Add 1st loading solution containing 10 microM CC2-DMPE and 0.06% Pluronic F-127 in assay buffer. • Incubate the plate at room temperature in dark for 1 hour. • Remove 1st loading solution and added 2nd loading solution containing 15 microM DiSBAC2(3), 0.555 mM VABSC-1 and 0.004% Pluronic F-127 in assay buffer. • Place the plate under the dark at room temperature for 25 minutes. • Add compound solutions into the assay plate. • Set the assay plate in FDSS and placed an EFS device on the plate. • Measure EFS-induced fluorescent response by FDSS.\nThe data are analyzed and reported as normalized ratios of intensities measured at […]. The process of calculating these ratios is performed as follows:\nThis analysis is performed using a computerized specific program designed for FDSS generated data. Fluorescence ratio values are plotted using XLfit to determine an IC50 value for each compound.", "units": {"IC50": "nM"}, "values": [
      {"smiles": "O=C(NCc1cc(OC(F)(F)F)ccc1F)c1ccnc(NC(=O)C2CC2)c1", "note": "[Example 608]", "IC50": "< 1000"},
      {"smiles": "CCC(=O)Nc1cc(C(=O)NCc2cc(OC(F)(F)F)ccc2F)cc(C)n1", "note": "[Example 609, N-(2-fluoro-5-(trifluoromethoxy)benzyl)-2-methyl-6-propionamidoisonicotinamide]", "IC50": "< 1000"},
      {"smiles": "CCC(=O)Nc1cc(C(=O)NCc2ccc(OCC(F)(F)C(F)(F)F)nc2)ccn1", "note": "[Example 639, N-((6-(2,2,3,3,3-pentafluoropropoxy)pyridin-3-yl)methyl)-2-propionamidoisonicotinamide]", "IC50": "< 1000"},
      {"smiles": "CC(C)C(=O)Nc1cc(C(=O)NCc2ccc(OCC(F)(F)C(F)(F)F)nc2)ccn1", "note": "[Example 641, 2-isobutyramido-N-((6-(2,2,3,3,3-pentafluoropropoxy)pyridin-3-yl)methyl)isonicotinamide]", "IC50": "< 1000"},
      {"smiles": "O=C(NCc1ccc(COCC(F)(F)F)cc1)c1ccnc(NC(=O)C2CC2)c1", "note": "[Example 665, 2-(cyclopropanecarboxamido)-N-(4-((2,2,2-trifluoroethoxy)methyl)benzyl)isonicotinamide]", "IC50": "< 1000"},
      {"smiles": "CC(=O)Nc1cc(C(=O)NCc2ccc(Cl)c(C(F)(F)F)c2)ccn1", "note": "[Example 682, 2-acetamido-N-(4-chloro-3-(trifluoromethyl)benzyl)isonicotinamide]", "IC50": "< 1000"},
      {"smiles": "CCc1cc(CNC(=O)c2ccnc(NC(C)=O)c2)cnc1OCC(F)(F)F", "note": "[Example 709, 2-acetamido-N-((5-ethyl-6-(2,2,2-trifluoroethoxy)pyridin-3-yl)methyl)isonicotinamide]", "IC50": "< 1000"},
      {"smiles": "CCC(=O)Nc1cc(C(=O)NCc2cnc(OCC(F)(F)F)c(CC)c2)ccn1", "note": "[Example 710, N-((5-ethyl-6-(2,2,2-trifluoroethoxy)pyridin-3-yl)methyl)-2-propionamidoisonicotinamide]", "IC50": "< 1000"},
      {"smiles": "CCc1cc(CNC(=O)c2ccnc(NC(=O)C3CC3)c2)cnc1OCC(F)(F)F", "note": "[Example 711, 2-(cyclopropanecarboxamido)-N-((5-ethyl-6-(2,2,2-trifluoroethoxy)pyridin-3-yl)methyl)isonicotinamide]", "IC50": "< 1000"},
      {"smiles": "CCc1cc(CNC(=O)c2ccnc(NC(=O)C(C)C)c2)cnc1OCC(F)(F)F", "note": "[Example 712, N-((5-ethyl-6-(2,2,2-trifluoroethoxy)pyridin-3-yl)methyl)-2-isobutyramidoisonicotinamide]", "IC50": "< 1000"},
      {"smiles": "CCc1cc(CNC(=O)c2cc(C)nc(NC(C)=O)c2)cnc1OCC(F)(F)F", "note": "[Example 713, 2-acetamido-N-((5-ethyl-6-(2,2,2-trifluoroethoxy)pyridin-3-yl)methyl)-6-methylisonicotinamide]", "IC50": "< 1000"},
      {"smiles": "CCC(=O)Nc1cc(C(=O)NCc2cnc(OCC(F)(F)F)c(CC)c2)cc(C)n1", "note": "[Example 714, N-((5-ethyl-6-(2,2,2-trifluoroethoxy)pyridin-3-yl)methyl)-2-methyl-6-propionamidoisonicotinamide]", "IC50": "< 1000"},
      {"smiles": "CCc1cc(CNC(=O)c2cc(C)nc(NC(=O)C(C)C)c2)cnc1OCC(F)(F)F", "note": "[Example 715, N-((5-ethyl-6-(2,2,2-trifluoroethoxy)pyridin-3-yl)methyl)-2-isobutyramido-6-methylisonicotinamide]", "IC50": "< 1000"},
      {"smiles": "CCc1cc(CNC(=O)c2ccnc(NC(=O)C3CC3)n2)cnc1OCC(F)(F)F", "note": "[Example 717, 2-(cyclopropanecarboxamido)-N-((5-ethyl-6-(2,2,2-trifluoroethoxy)pyridin-3-yl)methyl)pyrimidine-4-carboxamide]", "IC50": "< 1000"},
      {"smiles": "CCc1cc(CNC(=O)c2cc(C)nc(NC(=O)C3CC3)n2)cnc1OCC(F)(F)F", "note": "[Example 718, 2-(cyclopropanecarboxamido)-N-((5-ethyl-6-(2,2,2-trifluoroethoxy)pyridin-3-yl)methyl)-6-methylpyrimidine-4-carboxamide]", "IC50": "< 1000"},
      {"smiles": "CCC(=O)Nc1cc(C(=O)NCc2ccc(OCC(C)(F)F)nc2)ccn1", "note": "[Example 719, N-((6-(2,2-difluoropropoxy)pyridin-3-yl)methyl)-2-propionamidoisonicotinamide]", "IC50": "< 1000"},
      {"smiles": "CCC(=O)Nc1cc(C(=O)NCc2ccc(OCC(C)(F)F)nc2)cc(C)n1", "note": "[Example 721, N-((6-(2,2-difluoropropoxy)pyridin-3-yl)methyl)-2-methyl-6-propionamidoisonicotinamide]", "IC50": "< 1000"},
      {"smiles": "CC(=O)Nc1cc(C(=O)NCc2cnc(OCC(F)(F)F)c(C(F)(F)F)c2)cc(C)n1", "note": "[Example 727, 2-acetamido-6-methyl-N-((6-(2,2,2-trifluoroethoxy)-5-(trifluoromethyl)pyridin-3-yl)methyl)isonicotinamide]", "IC50": "< 1000"},
      {"smiles": "CC(=O)Nc1cc(C(=O)NCc2cccc(C(F)(F)F)c2F)cc(C)n1", "note": "[Example 729, 2-acetamido-N-(2-fluoro-3-(trifluoromethyl)benzyl)-6-methylisonicotinamide]", "IC50": "< 1000"},
      {"smiles": "CC(C)C(=O)Nc1cc(C(=O)NCc2cccc(C(F)(F)F)c2F)ccn1", "note": "[Example 730, N-(2-fluoro-3-(trifluoromethyl)benzyl)-2-isobutyramidoisonicotinamide]", "IC50": "< 1000"},
      {"smiles": "O=C(NCc1cc(C(F)(F)F)cc(C(F)(F)F)c1)c1ccnc(NC(=O)C2CC2)n1", "note": "[Example 736, N-(3,5-bis(trifluoromethyl)benzyl)-2-(cyclopropanecarboxamido)pyrimidine-4-carboxamide]", "IC50": "< 1000"},
      {"smiles": "CCC(=O)Nc1cc(C(=O)NCc2cnc(OCC(F)F)c(C)c2)ccn1", "note": "[Example 738, N-((6-(2,2-difluoroethoxy)-5-methylpyridin-3-yl)methyl)-2-propionamidoisonicotinamide]", "IC50": "< 1000"},
      {"smiles": "Cc1cc(CNC(=O)c2ccnc(NC(=O)C3CC3)c2)cnc1OCC(F)F", "note": "[Example 739, 2-(cyclopropanecarboxamido)-N-((6-(2,2-difluoroethoxy)-5-methylpyridin-3-yl)methyl)isonicotinamide]", "IC50": "< 1000"},
      {"smiles": "CCC(=O)Nc1cc(C(=O)NCc2cnc(OCC(F)F)c(C)c2)cc(C)n1", "note": "[Example 740, N-((6-(2,2-difluoroethoxy)-5-methylpyridin-3-yl)methyl)-2-methyl-6-propionamidoisonicotinamide]", "IC50": "< 1000"},
      {"smiles": "CC(=O)Nc1cc(C(=O)NCc2cnc(OCC(F)F)c(C)c2)cc(C)n1", "note": "[Example 742, 2-acetamido-N-((6-(2,2-difluoroethoxy)-5-methylpyridin-3-yl)methyl)-6-methylisonicotinamide]", "IC50": "< 1000"},
      {"smiles": "Cc1cc(C(=O)NCc2cnc(OCC(F)F)c(C)c2)cc(NC(=O)C(C)C)n1", "note": "[Example 743, N-((6-(2,2-difluoroethoxy)-5-methylpyridin-3-yl)methyl)-2-isobutyramido-6-methylisonicotinamide]", "IC50": "< 1000"},
      {"smiles": "CC(=O)Nc1cc(C(=O)NCc2cccc(OC(F)(F)F)c2F)ccn1", "note": "[Example 746, 2-acetamido-N-(2-fluoro-3-(trifluoromethoxy)benzyl)isonicotinamide]", "IC50": "< 1000"},
      {"smiles": "CCC(=O)Nc1cc(C(=O)NCc2cccc(OC(F)(F)F)c2F)ccn1", "note": "[Example 747, N-(2-fluoro-3-(trifluoromethoxy)benzyl)-2-propionamidoisonicotinamide]", "IC50": "< 1000"},
      {"smiles": "O=C(NCc1cccc(OC(F)(F)F)c1F)c1ccnc(NC(=O)C2CC2)c1", "note": "[Example 748, 2-(cyclopropanecarboxamido)-N-(2-fluoro-3-(trifluoromethoxy)benzyl)isonicotinamide]", "IC50": "< 1000"},
      {"smiles": "CCC(=O)Nc1cc(C(=O)NCc2cccc(OC(F)(F)F)c2F)cc(C)n1", "note": "[Example 749, N-(2-fluoro-3-(trifluoromethoxy)benzyl)-2-methyl-6-propionamidoisonicotinamide]", "IC50": "< 1000"},
      {"smiles": "CC(C)C(=O)Nc1cc(C(=O)NCc2cccc(OC(F)(F)F)c2F)ccn1", "note": "[Example 750, N-(2-fluoro-3-(trifluoromethoxy)benzyl)-2-isobutyramidoisonicotinamide]", "IC50": "< 1000"},
      {"smiles": "Cc1cc(C(=O)NCc2cccc(OC(F)(F)F)c2F)cc(NC(=O)C(C)C)n1", "note": "[Example 752, N-(2-fluoro-3-(trifluoromethoxy)benzyl)-2-isobutyramido-6-methylisonicotinamide]", "IC50": "< 1000"},
      {"smiles": "Cc1cc(CNC(=O)c2ccnc(NC(=O)C3CC3)n2)ccc1OCC(F)(F)F", "note": "[Example 779, 2-(cyclopropanecarboxamido)-N-(3-methyl-4-(2,2,2-trifluoroethoxy)benzyl)pyrimidine-4-carboxamide]", "IC50": "< 1000"},
      {"smiles": "O=C(NCc1cnc(OCC(F)F)c(C2CC2)c1)c1ccnc(NC(=O)C2CC2)n1", "note": "[Example 918, 2-(cyclopropanecarboxamido)-N-((5-cyclopropyl-6-(2,2-difluoroethoxy)pyridin-3-yl)methyl)pyrimidine-4-carboxamide]", "IC50": "< 1000"}
    ]}
  ]
}
